What all share (format): cell-based
Data set [1] concerns mRNA levels of MX1, ISG15, IFNB1, ACE2. The experiment in a line: Cellular mRNA levels by qPCR in IAV-infected Calu-3 cells. Conditions: IAV-infected Calu-3 cells (MOI of 1), 0 to 10 μM.
Another data set concerns Calu-3 cells. The experiment in a line: Drug-induced cytotoxicity, CCK-8, Calu-3 cells. The settings on record: 24 h. Here is the method:
(§1) The drug-induced cytotoxicity of the test drugs (tyrphostin-AG-1478 and brefeldin-a) on Calu-3 and Vero E6 cells was determined by a cell counting kit 8 (CCK-8, APExBIO). Cells were cultured overnight in 96-well cell-culture Petri dishes at a density of 1 × 10^4 cells/well. A 10 mM stock of drug was serially diluted in 100% DMSO to obtain a 10-point dilution series. Plates were cultured with fresh drug-containing medium at 37°C for 24 h. The DMSO concentration remained constant under all conditions at 0.05%. The absorbance of each well was determined by using a 96-well multiscanner. After subtracting background absorption, the results were expressed as a percentage of viability relative to that of control cultures that received no drug. Drug concentrations that inhibited cell viability by 50% (IC50) were determined by using GraphPad Prism 8 software.

Data set [2] has as its system Influenza A virus (IAV, Puerto Rico/8/1934(H1N1)). Briefly: Antiviral assay, IAV viral RNA in supernatant by RT-qPCR, Vero E6 cells. Conditions: for IC50: read-out: IC50, antiviral activity against IAV.
Data set [3] has the same test system. Briefly: Antiviral assay, IAV viral RNA in supernatant by RT-qPCR, Calu-3 cells. Conditions: for IC50: read-out: IC50, antiviral activity against IAV. (Real-time PCR tracks product formation cycle by cycle.)
A further data set has as its system Vero E6 cells. The experiment in a line: Drug-induced cytotoxicity, CCK-8, Vero E6 cells. The settings on record: 24 h. Here is the method: as §1

With `C[C@H]1CCC/C=C/[C@@H]2C[C@H](O)C[C@H]2[C@H](O)/C=C/C(=O)O1` [Brefeldin-a], in data set [1], the “ACE2 mRNA level” value is “significantly reduced”. Also, the “IFNβ (IFNB1) mRNA level” value in data set [1] is “significantly reduced”. For the same compound, the “ISG15 mRNA level” value in data set [1] is reported as “significantly reduced”. In data set [1], the “MX1 mRNA level” value is recorded as “significantly reduced”. Moreover, the “cytotoxicity (cell viability)” value is “Neither compound caused significant cytotoxicity” in the data set with Calu-3 cells and “slightly reduced viability” in the data set with Vero E6 cells. The “IAV viral RNA levels in cell culture supernatant” value (“IAV viral RNA levels” below) in data set [2] and in data set [3] was “reduced IAV viral RNA levels dose dependently” each time. In addition, the IC50 (usually the concentration that gives 50% inhibition) came to 0.246 µM in data set [2] (Influenza A virus, H1N1 / PR8, Vero C1008) and 0.059 µM in data set [3] (Influenza A virus, H1N1 / PR8, Calu-3).
On to `COc1cc2ncnc(Nc3cccc(Cl)c3)c2cc1OC` [Tyrphostin-AG-1478], for which, in data set [1], the “ACE2 mRNA level” value is recorded as “increased”, the “IFNβ (IFNB1) mRNA level” value is “elevated”, the “ISG15 mRNA level” value was “elevated” and the “MX1 mRNA level” value is “elevated”. Besides, the “cytotoxicity (cell viability)” value in the data set with Calu-3 cells is given as “Neither compound caused significant cytotoxicity”. In data set [2], the “IAV viral RNA levels” value was “reduced IAV viral RNA levels dose dependently” and the half-inhibitory concentration (IC50) came out at 0.053 µM. In data set [3], the “IAV viral RNA levels” value was “reduced IAV viral RNA levels dose dependently” and the IC50 came to 0.043 µM. The “cytotoxicity (cell viability)” value with Vero E6 cells was “Neither compound caused significant cytotoxicity”.

These data come from publication PMC7724679, “Identification of Repurposable Drugs and Adverse Drug Reactions for Various Courses of COVID-19 Based on Single-Cell RNA Sequencing Data” (ArXiv, 2020).
